Results taken from paper PMC9687805 (Biomolecules, 2022).
Where “and” joins values, the source holds several entries; their conditions need not be identical. Equal values may be shown once. Read-outs that look alike come from different tables or passages of the source.

Legend:
Human erythrocyte AChE = biological target: T1, Human erythrocyte AChE (Homo sapiens, UniProt P22303); assay: biochemical; settings: for inhibition at 20 µM: read-out: Inhibitory activity against AChE, % inhibition at 20 μM; for IC50: human erythrocyte AChE, 5 min incubation, 25 °C, pH 7.5, read-out: Inhibitory activity against AChE, IC50
T1 construct: purchased Sigma-Aldrich; host or cells: human erythrocytes
T1 sequence (P22303 32-617 isoform P22303-2 limits assumed): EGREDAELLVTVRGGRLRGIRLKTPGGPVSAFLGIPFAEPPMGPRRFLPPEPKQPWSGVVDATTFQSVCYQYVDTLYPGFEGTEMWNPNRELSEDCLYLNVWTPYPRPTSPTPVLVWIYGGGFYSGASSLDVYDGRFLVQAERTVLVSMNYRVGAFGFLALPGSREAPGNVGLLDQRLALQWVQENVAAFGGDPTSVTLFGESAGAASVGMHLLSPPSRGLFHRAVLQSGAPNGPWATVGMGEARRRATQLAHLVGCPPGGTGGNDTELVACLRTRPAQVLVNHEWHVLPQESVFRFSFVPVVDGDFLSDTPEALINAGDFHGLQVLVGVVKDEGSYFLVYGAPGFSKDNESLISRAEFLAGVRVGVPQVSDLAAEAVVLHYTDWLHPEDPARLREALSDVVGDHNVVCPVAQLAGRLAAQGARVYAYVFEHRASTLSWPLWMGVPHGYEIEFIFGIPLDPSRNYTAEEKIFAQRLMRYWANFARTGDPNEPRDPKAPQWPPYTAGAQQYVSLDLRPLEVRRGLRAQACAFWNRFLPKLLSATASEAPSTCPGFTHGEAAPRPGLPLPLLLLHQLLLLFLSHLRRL
Description: (§1) The assay solution consisted of 0.1 M K/Na phosphate buffer pH 7.5, 25 °C, 0.33 mM DTNB, 0.02 unit/mL AChE or BChE, and 1 mM substrate (ATCh or BTCh, respectively). Reagent blanks consisted of reaction mixtures without substrates.
(§2) Each experiment was performed in triplicate.

equine serum BChE = biological target: T2, equine serum BChE (Equus caballus, UniProt P81908); assay: biochemical; settings: mean ± SEM, n = 3; for IC50: equine serum BChE, 5 min incubation, 25 °C, pH 7.5, read-out: Inhibitory activity against BChE, IC50; for inhibition at 20 µM: read-out: Inhibitory activity against BChE, % inhibition at 20 μM, compound 20 μM, n.a. = not active
T2 construct: purchased Sigma-Aldrich; host or cells: equine serum
T2 sequence (P81908 whole entry): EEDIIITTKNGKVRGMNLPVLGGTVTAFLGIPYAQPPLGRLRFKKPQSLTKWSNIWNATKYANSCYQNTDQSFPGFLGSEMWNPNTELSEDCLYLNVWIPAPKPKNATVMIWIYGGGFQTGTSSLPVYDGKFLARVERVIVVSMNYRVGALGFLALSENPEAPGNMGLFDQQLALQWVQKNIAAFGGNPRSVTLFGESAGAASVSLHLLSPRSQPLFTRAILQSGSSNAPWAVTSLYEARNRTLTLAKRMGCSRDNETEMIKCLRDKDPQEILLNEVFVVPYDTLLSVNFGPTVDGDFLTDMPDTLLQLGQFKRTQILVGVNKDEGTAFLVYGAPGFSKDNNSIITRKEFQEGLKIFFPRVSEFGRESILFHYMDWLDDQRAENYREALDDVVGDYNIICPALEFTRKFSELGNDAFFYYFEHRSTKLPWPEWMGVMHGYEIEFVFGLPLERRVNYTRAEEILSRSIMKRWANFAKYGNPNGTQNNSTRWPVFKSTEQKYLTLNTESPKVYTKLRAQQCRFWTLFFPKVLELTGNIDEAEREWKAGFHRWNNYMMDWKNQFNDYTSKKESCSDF
Description: as §1, §2

[1] = ABTS radical cation scavenging activity assay; design: key to ABTS•+-scavenging activity, TEAC: ratio of slopes, tested compound vs Trolox (Trolox = 1); settings: n=3, 1 h, 30 °C; for ABTS•+-scavenging activity, TEAC: Trolox equivalent antioxidant capacity, mean ± SEM; for IC50: concentration for 50% reduction of ABTS radical cation
Description: Radical scavenging activity of the compounds was evaluated by the ABTS radical cation (ABTS^•+) scavenging assay showing the ability of the compounds to decolorize the ABTS^•+ solution [86] with some modifications. Trolox was used as the antioxidant standard; ascorbic acid was used as the comparison compound. All tested compounds and standards were dissolved in DMSO.
The solution of ABTS^•+ was produced by mixing 7 mM ABTS aqueous solution with 2.45 mM potassium persulfate aqueous solution in equal quantities and allowing them to react for 12–16 h at room temperature in the dark. Radical scavenging capacity of the compounds was analyzed by mixing 10 µL of compound with 240 µL of ABTS^•+ working solution in ethanol (100 µM final concentration), and after 1 h of incubation at 30 °C the decrease in absorbance was measured spectrophotometrically at 734 nm using a Bio-Rad xMark microplate UV/VIS spectrophotometer (Bio-Rad, Hercules, CA, USA). The compounds were tested in the concentration range 5 × 10^−7–1 × 10^−4 M. Ethanol blanks were run in each assay. Values were obtained from five replicates of each sample and three independent experiments.
Antioxidant activity was reported as Trolox equivalent antioxidant capacity (TEAC values), consisting of the ratio between the slopes obtained from the linear correlation for concentrations of the tested compounds and Trolox with absorbance of ABTS radical. […] The calculations were carried out using Origin 6.1 for Windows (OriginLab, Northampton, MA, USA). Results are presented as mean ± SEM calculated using GraphPad Prism version 6.05 for Windows, GraphPad Software (San Diego, CA, USA).

[2] = Ferric reducing antioxidant power (FRAP) assay; settings: Trolox equivalents; n=3, 1 h, 37 °C; mean ± SEM
Description: The FRAP (Ferric Reducing Antioxidant Power) assay measures the ability of antioxidants to reduce the ferric 2,4,6-tripyridyl-s-triazine complex [Fe(TPTZ)2]^3+ to the intensely blue-colored ferrous complex [Fe(TPTZ)2]^2+ with an absorption maximum at λ = 593 nm. The reducing ability of a compound is an indicator of its potential antioxidant activity.
The ferric reducing ability of the compounds was determined by a previously described method as a microplate-adapted version described in [42]. 2,4,6-tris(pyridin-2-yl)-1,3,5-triazine (TPTZ), FeCl3·6H2O, Trolox, ascorbic acid and DMSO were obtained from Sigma-Aldrich Chemical Co (St. Louis, MO, USA). The FRAP reagent was prepared by mixing acetate buffer (0.3 M, pH 3.6), TPTZ (10 mM in 40 mM HCl) and FeCl3·6H2O (20 mM in distilled water) in a ratio of 10:1:1 immediately before use. Compounds were dissolved in DMSO and tested in the concentration range of 1×10^−6–1×10^−4 M. The solvent content in the reaction mixture was 4% (v/v). The test compounds (10 µL) were added to the FRAP reagent solution (240 µL) and mixed thoroughly. The reaction was carried out at 37 °C in the dark, the incubation time was 1 h. The absorbance at 600 nm was monitored spectrophotometrically by a FLUOStar OPTIMA microplate reader (BMG Labtech, Germany) at 37 °C. Trolox was used as a standard antioxidant, ascorbic acid as a reference compound. Values were obtained from four replicates of each sample and three independent experiments.
The ferric reducing ability of compounds was expressed as TE units (antioxidant activity in Trolox equivalent) with the values calculated as the ratio of the concentrations of Trolox and the test compound resulting in the same effect.

EeAChE PAS = biological target: T3, EeAChE PAS (Electrophorus electricus, UniProt O42275); assay: biochemical; format: binding; settings: 0.25 h; compound 20 μM, EeAChE 7 μM, propidium iodide 8 μM; n.a. = not active; read-out: % Displacement of Propidium from the EeAChE PAS at 20 μM
T3 construct: purchased Sigma-Aldrich type VI-S; host or cells: electric eel
T3 sequence (O42275 24-633): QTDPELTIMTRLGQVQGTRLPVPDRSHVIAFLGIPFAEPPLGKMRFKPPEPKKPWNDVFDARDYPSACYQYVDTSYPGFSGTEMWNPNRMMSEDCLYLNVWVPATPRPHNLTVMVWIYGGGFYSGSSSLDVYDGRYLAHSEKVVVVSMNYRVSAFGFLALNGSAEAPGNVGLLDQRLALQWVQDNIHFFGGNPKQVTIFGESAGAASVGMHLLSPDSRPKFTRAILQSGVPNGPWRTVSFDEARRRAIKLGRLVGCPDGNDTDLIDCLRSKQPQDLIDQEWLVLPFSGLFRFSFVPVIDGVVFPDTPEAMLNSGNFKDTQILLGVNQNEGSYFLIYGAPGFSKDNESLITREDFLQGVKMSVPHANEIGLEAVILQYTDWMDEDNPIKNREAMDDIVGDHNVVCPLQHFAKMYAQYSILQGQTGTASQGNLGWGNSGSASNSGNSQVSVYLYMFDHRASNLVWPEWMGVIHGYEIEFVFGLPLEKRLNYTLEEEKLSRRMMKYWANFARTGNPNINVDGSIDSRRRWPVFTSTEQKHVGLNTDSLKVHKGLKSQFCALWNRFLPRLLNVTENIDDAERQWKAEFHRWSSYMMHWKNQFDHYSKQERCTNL
Description: Electrophorus electricus (EeAChE) (electric eel, type VI-S, lyophilized powder, Sigma-Aldrich, St. Louis, MO, USA) was used owing to its high degree of purification, high activity, and lower cost than human AChE (hAChE). […] To determine the degree of displacement (% displacement) of propidium from the PAS of AChE, EeAChE (final concentration, 7 μM) was incubated with the test compound at a concentration of 20 μM in 1 mM Tris-HCl buffer pH 8.0, 25 °C, for 15 min. Then, propidium iodide solution (final concentration, 8 μM) was added, the samples were incubated for 15 min, and the fluorescence spectrum (530 nm (excitation) and 600 nm (emission)) was taken. […] The blank contained propidium iodide of the same concentration in 1 mM Tris-HCl buffer, pH 8.0 at 25 °C. The measurements were carried out in triplicate on a FLUOStar Optima microplate reader (LabTech, Ortenberg, Germany), and the results were calculated by the following formula:% Displacement = 100 − (IFAChE + Propidium + inhibitor / IFAChE + Propidium) × 100 (1) where IFAChE + Propidium is the fluorescence intensity of the propidium associated with AChE in the absence of the test compound (taken as 100%), and IFAChE + Propidium + inhibitor is the fluorescence intensity of the propidium associated with AChE in the presence of the test compound.

[3] = Metal-chelating properties by UV-Vis spectrometry in acetonitrile; format: physicochemical; settings: compound 40 µM, metal 40 µM, 25 °C, red shift of absorbance
Description: The complexing studies were made in acetonitrile at 25 °C using a UV–vis spectrophotometer Shimadzu UV-2600 (Shimadzu Corporation, Kyoto, Japan) with wavelength ranging from 190 to 600 nm. Solutions (200 µM in acetonitrile) of the following metals compounds were prepared in volumetric flasks: FeCl2·4H2O (99%, Acros Organics by Thermo Fisher Scientific (Kandel, Germany)), CuCl2 (98%, Alfa Aesar by Thermo Fisher Scientific (Kandel, Germany)), or Zn(NO3)2·6H2O (98%, Alfa Aesar by Thermo Fisher Scientific (Kandel, Germany). Solutions of the test compounds were also prepared in acetonitrile at 400 µM concentrations. To a mixture of 0.5 mL test compound solution (40 μM final concentration) and 3.5 mL acetonitrile, 1 mL of the metal solution (CuCl2, FeCl2·4H2O, or Zn(NO3)2·6H2O; 40 µM final concentration) was added. The solution was incubated at 25 °C for 30 min and then the absorption spectra were recorded at 25 °C in a 1 cm quartz cell. The control was prepared by mixing 0.5 mL tested compound solution and 4.5 mL acetonitrile.

porcine liver CES = assay: CES inhibition, 4-nitrophenyl acetate hydrolysis; settings: compound 20 μM; mean ± SEM, n = 3; n.a. = not active
Description: Final enzyme and substrate (4-nitrophenyl acetate) concentrations were 0.02 unit/mL and 1 mM, respectively. Assays were carried out with a blank containing all constituents except porcine CES to assess non-enzymatic hydrolysis. Measurements were performed with a FLUOStar Optima microplate reader (BMG Labtech, Ortenberg, Germany). Compounds were dissolved in DMSO; the incubation mixture contained 2% (v/v) solvent. The primary evaluation of the inhibitory activity of the compounds was performed by determining the degree of the enzyme inhibition at a compound concentration of 20 µM. For this, a sample of the corresponding enzyme was incubated with the test compound for 5 min; then the enzyme residual activity was determined. Each experiment was performed in triplicate. […] Substrate was then added and residual enzyme activity relative to an inhibitor-free control was measured using a FLUOStar Optima microplate reader.

[4] = compound 20 μM, mean ± SEM, n = 3, n.a. = not active

Row | Compound | inhibition at 20 µM (Human erythrocyte AChE) | IC50 (equine serum BChE) | ABTS•+-scavenging activity, TEAC [1] | IC50 [1] | FRAP (Fe3+-reducing activity), TE [2] | inhibition at 20 µM (Human erythrocyte AChE; [4]) | inhibition at 20 µM (equine serum BChE) | IC50 (Human erythrocyte AChE; mean ± SEM, n = 3) | inhibition at 20 µM (EeAChE PAS) | Metal-chelating ability for Cu2+, Fe2+ and Zn2+ [3] | Inhibitory activity against CES, % inhibition at 20 μM (porcine liver CES)
1 | CCCCCCN/C(C)=C(\N=N\c1ccc(C)cc1)C(C)=O [2a, (3Z)-4-(Hexylamino)-3-[(E)-(4-methylphenyl)diazenyl]pent-3-en-2-one] | 22.9 ± 1.2% | 18100 ± 800 nM | 0.94 ± 0.03 | 20.3 ± 1.6 µM | 0.57 ± 0.02 |  |  |  |  |  | 
2 | CCCCCCN/C(C)=C(\N=Nc1ccc(C)cc1)C(=O)c1ccccc1 [2b, (3Z)-3-(Hexylamino)-2-[(4-methylphenyl)diazenyl]-1-phenylbut-2-en-1-one] |  |  | 0.98 ± 0.03 | 18.9 ± 1.2 µM | 0.52 ± 0.02 | 12.5 ± 0.6% | 25 ± 2% |  |  |  | 
3 | CCCCCCN/C(C)=C(\N=N\c1ccc(C)cc1)C(=O)C(F)(F)F [2c, (3Z)-4-(Hexylamino)-3-[(E)-(4-methylphenyl)diazenyl]-1,1,1-trifluoropent-3-en-2-one] |  |  | 1.00 ± 0.04 | 19.9 ± 1.4 µM | not active | 14.7 ± 3.2% | 35.3 ± 2.7% |  |  |  | 
4 | CC(=O)C(/N=N/c1ccc(C)cc1)=C(\C)NCCCCNc1c2c(nc3ccccc13)CCCC2 [6a] |  | 139 ± 17 nM | 1.00 ± 0.03 | 19.5 ± 1.1 µM | 0.37 ± 0.06 |  |  | 1390 ± 40 nM | 15.6 ± 1.2% | metal-chelating ability | 23.3 ± 0.4%
5 | CC(=O)C(/N=N/c1ccc(C)cc1)=C(\C)NCCCCCCCCNc1c2c(nc3ccccc13)CCCC2 [6c] |  | 54 nM and 54.3 nM | 0.80 ± 0.03 | 27.5 ± 1.6 µM | 0.49 ± 0.05 |  |  | 270 nM and 272 nM | 17.8 ± 1.4% |  | 30.1 ± 1.2%
6 | C/C(NCCCCNc1c2c(nc3ccccc13)CCCC2)=C(/N=N/c1ccc(C)cc1)C(=O)c1ccccc1 [7a] |  | 36 nM and 35.9 nM | 0.90 ± 0.04 | 22.3 ± 1.9 µM | 0.43 ± 0.04 |  |  | 889 ± 7 nM | 11.9 ± 0.8% | metal-chelating ability | 31.2 ± 2.9%
7 | C/C(NCCCCCCNc1c2c(nc3ccccc13)CCCC2)=C(/N=N/c1ccc(C)cc1)C(=O)c1ccccc1 [7b] |  | 47 ± 3.8 nM | 0.91 ± 0.03 | 21.8 ± 1.6 µM | 0.51 ± 0.06 |  |  | 380 ± 3 nM | 15.5 ± 1.3% |  | 33.2 ± 1.7%
8 | C/C(NCCCCCCCCNc1c2c(nc3ccccc13)CCCC2)=C(/N=N/c1ccc(C)cc1)C(=O)c1ccccc1 [7c] |  | 74.5 ± 6 nM | 0.92 ± 0.03 | 21.8 ± 1.6 µM | 0.58 ± 0.03 |  |  | 250 nM and 249 nM | 14.1 ± 1.1% |  | 23.4 ± 2.2%
9 | C/C(NCCCCNc1c2c(nc3ccccc13)CCCC2)=C(/N=N/c1ccc(C)cc1)C(=O)C(F)(F)F [8a] |  | 246 ± 16 nM | 1.13 ± 0.05 | 17.7 ± 1.3 µM | 0.06 ± 0.01 |  |  | 1690 ± 50 nM | 13.7 ± 1.2% | metal-chelating ability | 28.6 ± 4.0%
10 | C/C(NCCCCCCNc1c2c(nc3ccccc13)CCCC2)=C(/N=N/c1ccc(C)cc1)C(=O)C(F)(F)F [8b] |  | 125 ± 6 nM | 1.00 ± 0.04 | 17.9 ± 0.6 µM | 0.11 ± 0.03 |  |  | 280 nM and 276 nM | 14.4 ± 1.3% |  | 19.9 ± 2.9%
11 | C/C(NCCCCCCCCNc1c2c(nc3ccccc13)CCCC2)=C(/N=N/c1ccc(C)cc1)C(=O)C(F)(F)F [8c] |  | 98.5 ± 1.3 nM | 0.95 ± 0.03 | 19.4 ± 1.3 µM | 0.12 ± 0.01 |  |  | 240 nM and 241 nM | 16.2 ± 1.4% |  | 12.2 ± 1.7%
12 | O=C1O[C@H]([C@@H](O)CO)C(O)=C1O [Ascorbic acid, ascorbic acid, reference compound] |  |  | 0.96 ± 0.02 | 22.6 ± 1.3 µM | 1.23 ± 0.11 |  |  |  |  |  | 
13 | Cc1c(C)c2c(c(C)c1O)CCC(C)(C(=O)O)O2 (centres unmarked) [Trolox, 6-hydroxy-2,5,7,8-tetramethylchroman-2-carboxylic acid, reference compound] |  |  | 1.0 | 19.7 ± 0.8 µM | 1.0 |  |  |  |  |  | 
